In patent publication US7414110B2, “Human calcium channel compositions and methods” (Merck & Co., Inc., priority 1990, dated 2008):

Assays:
[1] = biological target: T1, α1B-1α2bβ1-2 (Homo sapiens, UniProt Q00975, Y99N); type: cell-based
T1 construct: contains, in pcDNA1, a full-length coding region encoding α1B-1; expressed in transfected cells; host or cells: HEK293 cells, transient
Target sequence in this assay (Q00975 whole entry Y99N): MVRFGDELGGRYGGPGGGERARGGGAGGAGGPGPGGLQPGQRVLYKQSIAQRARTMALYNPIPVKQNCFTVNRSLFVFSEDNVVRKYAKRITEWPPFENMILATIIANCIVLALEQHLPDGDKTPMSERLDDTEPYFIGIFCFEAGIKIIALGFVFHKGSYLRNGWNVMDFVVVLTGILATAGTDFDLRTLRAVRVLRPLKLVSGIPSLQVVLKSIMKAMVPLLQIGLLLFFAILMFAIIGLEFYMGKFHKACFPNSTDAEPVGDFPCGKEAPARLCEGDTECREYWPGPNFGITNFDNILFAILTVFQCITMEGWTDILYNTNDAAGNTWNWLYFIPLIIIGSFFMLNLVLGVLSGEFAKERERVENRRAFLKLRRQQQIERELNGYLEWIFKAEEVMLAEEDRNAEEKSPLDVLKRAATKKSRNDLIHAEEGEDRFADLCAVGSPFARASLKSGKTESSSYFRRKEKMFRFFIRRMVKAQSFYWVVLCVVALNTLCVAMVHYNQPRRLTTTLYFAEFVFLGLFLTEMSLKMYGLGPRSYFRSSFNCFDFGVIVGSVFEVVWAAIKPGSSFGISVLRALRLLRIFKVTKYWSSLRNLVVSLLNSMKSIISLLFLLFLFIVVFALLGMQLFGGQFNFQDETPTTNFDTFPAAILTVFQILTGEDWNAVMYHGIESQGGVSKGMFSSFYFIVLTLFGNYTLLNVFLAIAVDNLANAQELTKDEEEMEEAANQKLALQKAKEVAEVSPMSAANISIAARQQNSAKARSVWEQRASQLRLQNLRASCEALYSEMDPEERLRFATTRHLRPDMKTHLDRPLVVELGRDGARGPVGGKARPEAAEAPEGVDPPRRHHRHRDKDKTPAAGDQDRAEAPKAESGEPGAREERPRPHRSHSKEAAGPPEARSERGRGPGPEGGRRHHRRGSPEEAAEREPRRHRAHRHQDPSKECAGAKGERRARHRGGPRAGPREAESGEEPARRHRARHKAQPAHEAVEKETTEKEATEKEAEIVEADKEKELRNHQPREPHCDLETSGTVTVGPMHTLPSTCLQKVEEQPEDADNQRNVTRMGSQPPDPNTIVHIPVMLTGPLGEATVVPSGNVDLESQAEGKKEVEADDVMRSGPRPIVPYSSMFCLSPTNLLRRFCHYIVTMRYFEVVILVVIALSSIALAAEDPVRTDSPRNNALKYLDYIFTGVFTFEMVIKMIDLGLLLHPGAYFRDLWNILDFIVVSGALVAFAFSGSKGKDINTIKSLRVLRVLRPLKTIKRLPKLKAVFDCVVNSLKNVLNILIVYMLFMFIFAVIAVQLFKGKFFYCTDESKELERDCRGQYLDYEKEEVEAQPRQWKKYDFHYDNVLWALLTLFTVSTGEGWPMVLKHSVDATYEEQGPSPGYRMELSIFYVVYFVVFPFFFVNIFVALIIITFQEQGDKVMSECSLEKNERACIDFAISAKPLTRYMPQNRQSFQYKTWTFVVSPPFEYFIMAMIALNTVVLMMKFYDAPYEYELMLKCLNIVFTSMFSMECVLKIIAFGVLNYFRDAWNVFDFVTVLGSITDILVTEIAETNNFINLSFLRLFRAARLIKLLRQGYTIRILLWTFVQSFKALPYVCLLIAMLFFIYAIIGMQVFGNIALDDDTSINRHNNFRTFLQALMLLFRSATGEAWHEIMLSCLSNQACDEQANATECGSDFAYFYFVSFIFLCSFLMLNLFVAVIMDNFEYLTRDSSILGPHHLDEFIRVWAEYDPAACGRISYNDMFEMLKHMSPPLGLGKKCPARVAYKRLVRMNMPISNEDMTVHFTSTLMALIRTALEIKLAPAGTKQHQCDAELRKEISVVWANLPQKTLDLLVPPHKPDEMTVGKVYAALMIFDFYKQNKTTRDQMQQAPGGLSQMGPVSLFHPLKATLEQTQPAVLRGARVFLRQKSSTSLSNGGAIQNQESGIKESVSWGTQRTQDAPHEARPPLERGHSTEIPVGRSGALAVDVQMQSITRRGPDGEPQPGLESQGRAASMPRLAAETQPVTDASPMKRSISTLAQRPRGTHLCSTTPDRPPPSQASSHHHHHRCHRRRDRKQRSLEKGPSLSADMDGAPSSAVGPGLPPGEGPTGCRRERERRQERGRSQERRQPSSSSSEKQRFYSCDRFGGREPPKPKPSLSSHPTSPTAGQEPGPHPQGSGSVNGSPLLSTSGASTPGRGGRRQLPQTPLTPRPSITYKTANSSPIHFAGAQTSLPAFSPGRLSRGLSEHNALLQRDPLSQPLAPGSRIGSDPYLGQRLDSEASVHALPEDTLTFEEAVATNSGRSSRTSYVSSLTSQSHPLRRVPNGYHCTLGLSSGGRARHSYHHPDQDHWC
Target sequence in this assay (as listed by the source partner): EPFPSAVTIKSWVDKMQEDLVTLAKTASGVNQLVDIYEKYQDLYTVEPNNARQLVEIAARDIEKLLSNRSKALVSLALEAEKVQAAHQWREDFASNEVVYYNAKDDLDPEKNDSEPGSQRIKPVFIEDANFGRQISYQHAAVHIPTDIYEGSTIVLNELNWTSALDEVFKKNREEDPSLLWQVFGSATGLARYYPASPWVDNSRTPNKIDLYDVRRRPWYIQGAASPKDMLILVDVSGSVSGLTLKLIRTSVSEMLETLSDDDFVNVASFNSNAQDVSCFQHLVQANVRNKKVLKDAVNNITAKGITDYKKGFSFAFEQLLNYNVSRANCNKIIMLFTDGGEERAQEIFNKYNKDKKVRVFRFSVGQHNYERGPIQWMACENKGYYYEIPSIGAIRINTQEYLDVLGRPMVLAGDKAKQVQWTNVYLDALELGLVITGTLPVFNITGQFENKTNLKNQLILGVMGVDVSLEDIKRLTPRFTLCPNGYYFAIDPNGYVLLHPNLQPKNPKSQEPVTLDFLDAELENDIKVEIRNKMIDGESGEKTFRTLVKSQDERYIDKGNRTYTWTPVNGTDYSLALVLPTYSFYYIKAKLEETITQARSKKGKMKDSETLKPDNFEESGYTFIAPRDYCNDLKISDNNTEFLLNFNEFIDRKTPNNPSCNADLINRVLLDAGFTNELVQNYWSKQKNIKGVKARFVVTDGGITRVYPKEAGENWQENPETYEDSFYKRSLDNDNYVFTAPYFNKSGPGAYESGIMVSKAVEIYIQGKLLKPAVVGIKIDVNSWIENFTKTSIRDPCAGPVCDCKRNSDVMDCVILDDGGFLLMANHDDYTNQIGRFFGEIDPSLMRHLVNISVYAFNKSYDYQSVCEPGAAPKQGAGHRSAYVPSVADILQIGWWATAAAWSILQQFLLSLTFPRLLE
Target sequence in this assay (as listed by the source partner): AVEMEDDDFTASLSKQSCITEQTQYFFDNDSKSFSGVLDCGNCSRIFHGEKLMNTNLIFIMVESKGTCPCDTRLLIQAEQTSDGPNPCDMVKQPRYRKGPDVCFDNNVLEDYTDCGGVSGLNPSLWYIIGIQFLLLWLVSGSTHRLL
Target sequence in this assay (as listed by the source partner): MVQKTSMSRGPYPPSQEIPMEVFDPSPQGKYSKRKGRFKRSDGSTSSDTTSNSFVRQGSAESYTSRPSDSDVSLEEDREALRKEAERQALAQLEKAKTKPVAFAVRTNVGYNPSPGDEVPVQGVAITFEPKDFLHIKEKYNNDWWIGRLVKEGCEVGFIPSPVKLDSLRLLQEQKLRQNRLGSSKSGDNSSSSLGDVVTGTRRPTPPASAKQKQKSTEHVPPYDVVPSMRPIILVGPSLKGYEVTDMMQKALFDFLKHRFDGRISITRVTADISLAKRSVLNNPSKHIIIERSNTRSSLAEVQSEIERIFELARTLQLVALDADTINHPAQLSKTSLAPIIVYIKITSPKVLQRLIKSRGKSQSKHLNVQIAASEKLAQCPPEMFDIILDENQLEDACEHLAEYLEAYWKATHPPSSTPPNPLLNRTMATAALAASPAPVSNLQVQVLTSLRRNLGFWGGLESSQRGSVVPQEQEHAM

[2] = system: calcium channels containing α1E subunits; type: cell-based, human
[3] = biological target: human neuronal calcium channel α1D and α2 subunits (Homo sapiens, UniProt Q01668, S1346F/Y1433H); assay: two-electrode voltage clamp, oöcytes injected with α1D and α2 transcripts; settings: 15-30 nA currents; holding potential −90 mV
[4] = system: human neuronal calcium channel α2 and β1 subunits; assay: two-electrode voltage clamp, oöcytes injected with α2 and β1 transcripts; settings: n=11
[5] = system: untransfected HEK 293 cells; assay: whole-cell patch clamp, untransfected HEK 293 cells; type: cell-based, human; settings: with or without cAMP or forskolin
[6] = biological target: human neuronal calcium channel α1D and β1 subunits (Homo sapiens, UniProt Q01668, S1346F/Y1433H); assay: two-electrode voltage clamp, oöcytes injected with α1D and β1 transcripts; settings: two of four oöcytes; compared with α1D, α2, β1 oöcytes
[7] = biological target: T2, α1B-2 (Homo sapiens, UniProt Q00975, L2215R/Y99N); type: binding
T2 construct: Full-length DNA clones and corresponding RNA transcripts, encoding α1, including splice variants of α1A, α1D, α1B; expressed in transfected cells; host or cells: HEK293 cells, transient

[8] = biological target: T3, α1B-1β1-2 (Homo sapiens, UniProt Q00975, Y99N); type: binding
T3 construct: contains, in pcDNA1, a full-length coding region encoding α1B-1; expressed in transfected cells; host or cells: HEK293 cells, transient

[9] = biological target: T4, α1B-2α2b (Homo sapiens, UniProt Q00975, L2215R/Y99N); type: binding
T4 construct: Full-length DNA clones and corresponding RNA transcripts, encoding α1, including splice variants of α1A, α1D, α1B; expressed in transfected cells; host or cells: HEK293 cells, transient

[10] = biological target: T5, α1B-1 (Homo sapiens, UniProt Q00975, Y99N); type: binding
T5 construct: contains, in pcDNA1, a full-length coding region encoding α1B-1; expressed in transfected cells; host or cells: HEK293 cells, transient

[11] = biological target: T1, α1B-1α2bβ1-2; type: binding
Target sequence in this assay (Q00975 whole entry Y99N): as the sequence (Q00975 whole entry Y99N) above

[12] = biological target: T6, α1B-2β1-2 (Homo sapiens, UniProt Q00975, L2215R/Y99N); type: binding
T6 construct: Full-length DNA clones and corresponding RNA transcripts, encoding α1, including splice variants of α1A, α1D, α1B; expressed in transfected cells; host or cells: HEK293 cells, transient

[13] = biological target: T7, α1B-1α2bβ1-3 (Homo sapiens, UniProt Q00975, Y99N); type: binding
T7 construct: contains, in pcDNA1, a full-length coding region encoding α1B-1; expressed in transfected cells; host or cells: HEK293 cells, transient

[14] = biological target: T8, α1B-2β1-3 (Homo sapiens, UniProt Q00975, L2215R/Y99N); type: binding
T8 construct: Full-length DNA clones and corresponding RNA transcripts, encoding α1, including splice variants of α1A, α1D, α1B; expressed in transfected cells; host or cells: HEK293 cells, transient

[15] = biological target: T9, α1B-1α2b (Homo sapiens, UniProt Q00975, Y99N); type: binding
T9 construct: contains, in pcDNA1, a full-length coding region encoding α1B-1; expressed in transfected cells; host or cells: HEK293 cells, transient

[16] = system: subunit combinations lacking either the α1B-1 or the α1B-2 subunit
[17] = biological target: T10, α1B-2α2bβ1-2 (Homo sapiens, UniProt Q00975, L2215R/Y99N); type: binding
T10 construct: Full-length DNA clones and corresponding RNA transcripts, encoding α1, including splice variants of α1A, α1D, α1B; expressed in transfected cells; host or cells: HEK293 cells, transient

[18] = biological target: T11, α1B-2α2bβ1-3 (Homo sapiens, UniProt Q00975, L2215R/Y99N); type: binding
T11 construct: Full-length DNA clones and corresponding RNA transcripts, encoding α1, including splice variants of α1A, α1D, α1B; expressed in transfected cells; host or cells: HEK293 cells, transient

[19] = biological target: T12, α1B-1β1-3 (Homo sapiens, UniProt Q00975, Y99N); type: binding
T12 construct: contains, in pcDNA1, a full-length coding region encoding α1B-1; expressed in transfected cells; host or cells: HEK293 cells, transient

[20] = system: untransfected HEK293 cells
[21] = system: cells transfected with only β-galactosidase-encoding DNA or α2bβ-encoding DNA
[22] = biological target: T13, α1B-1, α2b and β1-2 subunits (Homo sapiens, UniProt Q00975, Y99N); type: binding
T13 construct: contains, in pcDNA1, a full-length coding region encoding α1B-1; expressed in transfected cells; host or cells: HEK293 cells, transient
T13 sequence (Q00975 whole entry Y99N): as above

T5 sequence (Q00975 whole entry Y99N): as above
T9 sequence (Q00975 whole entry Y99N): as above

Q: How did the “blockage of IBa” value ([1]; 50 μM) turn out when `[Cd]` [cadmium] was run?
A: rapid, complete, and reversible

Q: “ω-Aga-IVA: funnel web spider toxin that blocks certain high voltage activated channels (KKKCIAKDYGRCKWGGTPCCRGRGCICSIMGTNCECKPRLIMEGLGLA)” was tested. Which “sensitivity of channels containing α1E subunits” value [2] did it give?
A: sensitive

Q: Which results are given for `COC(=O)C1=C(C)NC(C)=C([N+](=O)[O-])C1c1ccccc1C(F)(F)F` (stereo not drawn) [Bay K 8644]?
A: response of barium currents to Bay K 8644 [3]: little or no response; sensitivity of inward barium currents to Bay K 8644 [4]: insensitive; effects of Bay K 8644 on currents [5]: No such effects; effect on IBa ([1]; n=4): no discernable effect; sensitivity of Ba2+ currents to Bay K 8644 [6]: similar

Q: `C[C@@H](O)[C@@H]1NC(=O)[C@H](Cc2ccc(O)cc2)NC(=O)[C@@H]2C[C@@H](O)CN2C(=O)[C@H](CC(N)=O)NC(=O)[C@@H]2CSSC[C@@H]3NC(=O)[C@H](CO)NC(=O)[C@H](CO)NC(=O)CNC(=O)[C@@H]4C[C@@H](O)CN4C(=O)[C@H](CO)NC(=O)[C@H](CCCCN)NC(=O)[C@@H](N)CSSC[C@H](NC(=O)[C@H](CSSC[C@@H](C(=O)N[C@@H](Cc4ccc(O)cc4)C(N)=O)NC(=O)[C@H](CCCNC(=N)N)NC(=O)[C@H](CCCCN)NC1=O)NC(=O)[C@H](CC(N)=O)NC(=O)[C@H](Cc1ccc(O)cc1)NC(=O)[C@H](CO)NC(=O)[C@H]([C@@H](C)O)NC(=O)[C@@H]1C[C@@H](O)CN1C(=O)[C@H](CO)NC3=O)C(=O)N[C@@H](CCCNC(=N)N)C(=O)N[C@@H](CO)C(=O)N2` [125I-ω-CgTx GVIA] was tested. Which “Kd (pM)” value [7] did it give?
A: too low for reliable Scatchard analysis

Q: What about the “Bmax (sites/cell)” value [8] of the same molecule?
A: 5,756 ± 2,163 sites/cell

Q: What about the “Kd (pM)” value [9] of the same molecule?
A: too low for reliable Scatchard analysis

Q: What about the “Bmax (sites/cell)” value [10] of the same molecule?
A: 757 ± 128 sites/cell

Q: What about the “number of binding sites” value [10] of the same molecule?
A: approximately 750 binding sites/cell

Q: What about the “Bmax (sites/cell)” value [11] of the same molecule?
A: 45,324 ± 15,606 sites/cell

Q: And the “Bmax (sites/cell)” value [12]?
A: 2,126 ± 412 sites/cell

Q: What about the “Bmax (sites/cell)” value [13] of the same molecule?
A: 91,004 ± 37,654 sites/cell

Q: What about the “Bmax (sites/cell)” value [14] of the same molecule?
A: 2,944 ± 1,168 sites/cell

Q: And the “Bmax (sites/cell)” value [15]?
A: 2,256 ± 356 sites/cell

Q: What about the “detectable 125I-ω-CgTx GVIA binding” value [16] of the same molecule?
A: ≤ 600 sites/cell

Q: And the “Bmax (sites/cell)” value [17]?
A: 19,371 ± 3,798 sites/cell

Q: And the “Bmax (sites/cell)” value [18]?
A: 37,652 ± 8,129 sites/cell

Q: What about the “Bmax (sites/cell)” value [19] of the same molecule?
A: 8,729 ± 2,980 sites/cell

Q: With `C[C@@H](O)[C@@H]1NC(=O)[C@H](Cc2ccc(O)cc2)NC(=O)[C@@H]2C[C@@H](O)CN2C(=O)[C@H](CC(N)=O)NC(=O)[C@@H]2CSSC[C@@H]3NC(=O)[C@H](CO)NC(=O)[C@H](CO)NC(=O)CNC(=O)[C@@H]4C[C@@H](O)CN4C(=O)[C@H](CO)NC(=O)[C@H](CCCCN)NC(=O)[C@@H](N)CSSC[C@H](NC(=O)[C@H](CSSC[C@@H](C(=O)N[C@@H](Cc4ccc(O)cc4)C(N)=O)NC(=O)[C@H](CCCNC(=N)N)NC(=O)[C@H](CCCCN)NC1=O)NC(=O)[C@H](CC(N)=O)NC(=O)[C@H](Cc1ccc(O)cc1)NC(=O)[C@H](CO)NC(=O)[C@H]([C@@H](C)O)NC(=O)[C@@H]1C[C@@H](O)CN1C(=O)[C@H](CO)NC3=O)C(=O)N[C@@H](CCCNC(=N)N)C(=O)N[C@@H](CO)C(=O)N2` [ωCgTX] as the molecule, how does the “detectable ω-CgTx GVIA binding sites” value [20] read?
A: do not express detectable

Q: And the block of activity [1]?
A: blocked the activity completely

Q: What about the block of channels [1] of the same molecule?
A: blocked irreversibly

Q: What about the “time to complete block” value [1] of the same molecule?
A: ≤ 2 min

Q: And the specific binding [21]?
A: no specific binding

Q: And the “binding capacity (Bmax)” value [22]?
A: 28,710±11,950 sites per cell
